Results reported in paper PMC10442743 (Dalton Transactions (Cambridge, England : 2003), 2023).
Like-named read-outs stand apart in the source and are kept apart here.

How the values were obtained:
[1] = n-octanol/water partition coefficient (shake-flask, ICP-MS)
Method: The saturated solutions were filtered
(DigiPREP Jr. 15ml, 40 Pos, SCP Science). The digestion program was the following: 15
After the digestion, the sample
Samples were further diluted
range. All measurements were performed in triplicates.
lipophilicity of a compound. This assay was performed following the Shake-flask method
organic and aqueous phase. Aliquots of each phase were taken and analyzed separately
range. The partition coefficient was calculated as P!"=
respectively. All measurements were performed in triplicates.

MCF-7 = assay: MTT cytotoxicity assay, MCF-7 cells; assay type: cell-based, human
Method: (§1) The cytotoxicity of 1–11CA was assessed against human breast cancer MCF-7 and MDA-MB-231 cells, and non-tumorigenic adherent mouse fibroblast connective tissue L929 cells using the MTT assay after 24 and 72 h (Tables S5 ^† and Table 1, respectively).
(§2) Then, necessary dilutions were made using the supplement DMEM, to prepare the range of tested concentrations. Since DMSO was used to solubilize the compounds, a supplemented DMEM + DMSO (at the same percentage as in the sequential dilutions) was considered as a control in the 3-[4,5-dimetylthiazole-2-yl]-2,5-diphenyltetrazolium bromide (MTT) assay.
(§3) L929, MCF-7, and MDA-MB-231 cell lines were cultured in DMEM supplemented with 10% (v/v) FBS and 1% (v/v) of penicillin–streptomycin. The cells were incubated in a humidified chamber at 37 °C under saturated air with a 5% CO2 atmosphere. Cells were passed at 80%–90% of confluency with 0.25% (w/v) trypsin and the cell culture media was changed every 2–3 days.
(§4) The compounds were tested on two breast cancer cell lines (MCF-7 and MDA-MB-231) and L929 fibroblasts, used as a reference for the safety evaluation according to ISO 10993-1:2009 “Biological evaluation of medical devices”. Cells were seeded on sterile 96-well plates at 50 000 cells per well (L929) and 20 000 cells per well (MCF-7 and MDA-MB-231) in supplemented DMEM medium (100 μL) for 24 h. The culture medium was removed and new media containing different concentrations of the compounds (0–1000 μM) was added to the wells (100 μL). Control cells were incubated under the same conditions in the absence of a compound. Cells were incubated for 24 and 72 h under the same conditions described above. Then, the medium was removed, and the cells were incubated with 3-(4,5-dimethylthiazol-2-yl)-2,5-diphenyltetrazolium bromide (MTT; 0.5 mg mL^−1) for 3 h. After this time, the medium was removed, and formazan crystals were solubilized with DMSO (100 μL per well). The absorbance in each well was read on a SynergyTM HT Multimode microplate reader (BioTek Instruments; Winooski, VT, USA) at 570 and 630 nm (for background correction), and the cell viability was calculated according to the following equation (eqn (1)):1 [drawing 3] where OD570(sample) and OD630(sample) are the optical densities of the solutions containing the compounds and OD570(control) and OD630(control) are controls without compound.
(§5) Each apoptosis value determination represents the mean ± standard deviation of 2 independent assays. The IC50 values were obtained using GraphPad Prism software and ANOVA (analysis of variance) was performed to determine the statistical difference between the IC50 values of different cell lines.

L929 = assay: MTT cytotoxicity assay, L929 fibroblasts (and selectivity index); assay type: cell-based, mouse; settings: for SI (selectivity index): IC50 L929 divided by average IC50 of the breast cancer cell lines
Method: as §1, §2, §3, §4, §5

[2] = Molar conductivity in acetonitrile; assay type: physicochemical; settings: 1 mM in acetonitrile, 25 °C
Method: The molar conductivity (ΛM, reported as S·cm2·mol–1) of solutions of 11CA in acetonitrile (1 mM) were measured in a Radiometer Copenhagen CDM92 equipped with a conductivity cell CDC641T glass platinum electrode at room temperature (25 °C). The conductivity of the pure solvent was used as standard controls.
Table S3. Solubility in water at 25 °C, n-octanol/water partition coefficient and molar conductivity of the 11CA. * below limit of detection = 5 ppt.

MDA-MB-231 = assay: MTT cytotoxicity assay, MDA-MB-231 cells; assay type: cell-based, human
Method: as §1, §2, §3, §4, §5

[3] = Solubility in water (ICP-MS); settings: 25 °C, limit of detection = 5 ppt
Method: sonication, the mixtures were stirred at 25 °C for 1 h. The saturated solutions were filtered
to remove any insoluble solids, dissolved in 0.5 mL of MilliQ water, and analyzed using
ICP-MS. Samples were submitted to acidic digestion with 2 mL of concentrated HNO3
min to heat to 100°C and keep at 100°C for 60 min. After the digestion, the sample
volumes were precisely adjusted to 5 mL with MilliQ water. Samples were further diluted
30 times with 2% HNO3 solution and their Ru content was analyzed by ICP-MS using
standard mode on NexIon 350 D ICP-MS instrument (PerkinElmer). Yttrium was added
as an internal standard at a concentration of 2 ppb to all the solution and Ru quantitation
was performed using an external calibration curve with standards in the 0.05-50 ppb

ctDNA = assay: Circular dichroism / induced circular dichroism with calf thymus DNA; settings: DNA, 24 h, 37 °C
Method: Calf thymus (ct) DNA (Merck®) was used to perform the circular dichroism assay to detect conformational changes in the ctDNA induced by the compounds. CD spectral data was collected on a Chirascan™ V100 (Applied Photophysics) spectropolarimeter equipped with a large area Avalanche photodiodes detector and computer-controlled thermoelectrical cell holder using a 1 cm path length quartz cuvette. CD spectra of ctDNA in the absence and presence of different concentrations of 11Cl were recorded at wavelengths ranging from 320 to 190 nm under constant nitrogen flush at 25 °C. For each CD spectrum, the number of scans was set to 5, and spectral data were collected at 0.1 ms intervals. Additionally, methyl green (MG) and 4′,6-diamidino-2-phenylindole (DAPI), and propidium iodide (PI) were analyzed as minor and major groove binders and as an intercalator, respectively, to help identify the binding mode of 11Cl to DNA. Samples were prepared in 10 mM Tris-HCl buffer (pH 7.6) with 1 mM EDTA. The concentration of ctDNA was fixed at 100 μM (concerning base pairs) and the ctDNA to 11Cl ratio was varied between 0 and 1. The samples were incubated for 24 h at 37 °C and then analyzed in the CD spectropolarimeter.

[4] = sodium counteranion salts, 24 h, read-out: IC50 in MCF-7 cell line Mean ± SD 24 h
[5] = sodium counteranion salts, 72 h, read-out: IC50 in MCF-7 cell line Mean ± SD 72h
[6] = sodium counteranion salts, 24 h, read-out: IC50 in L929 cell line Mean ± SD 24 h
[7] = sodium counteranion salts, 72 h, read-out: IC50 in L929 cell line Mean ± SD 72h
[8] = sodium counteranion salts, 24 h, read-out: IC50 in MDA-MB-231 cell line Mean ± SD 24 h
[9] = sodium counteranion salts, 72 h, read-out: IC50 in MDA-MB-231 cell line Mean ± SD 72h

SMILES	IC50 (MCF-7; [4]) [µM]	IC50 (MCF-7; [5]) [µM]	IC50 (L929; [6]) [µM]	IC50 (L929; [7]) [µM]	IC50 (MDA-MB-231; [8]) [µM]	IC50 (MDA-MB-231; [9]) [µM]	further results
Cc1cccc[c]1[Ru+]([Cl])([PH](c1ccccc1)(c1ccccc1)c1ccccc1)[PH](c1ccccc1)(c1ccccc1)c1ccccc1.F[P-](F)(F)(F)(F)F [Compound 11PF6]							LogPow [1]: 1.91 ± 0.23; IC50 (MCF-7; 24 h exposure, MTT, read-out: IC50 (µM) (average ± standard deviation) 24 h MCF-7): 3 ± 0.3 µM; IC50 (MCF-7; 72 h exposure, MTT, read-out: IC50 (μM) (average ± standard deviation) 72 h MCF-7): 0.15 ± 0.01 µM; SI (selectivity index) (L929; 24 h): 2.5; IC50 (L929; 24 h exposure, MTT, read-out: IC50 (µM) (average ± standard deviation) 24 h L929): 10 ± 1 µM; SI (selectivity index) (L929; 72 h): 1.1; IC50 (L929; 72 h exposure, MTT, read-out: IC50 (μM) (average ± standard deviation) 72 h L929): 0.17 ± 0.01 µM; Conductivity (molar conductivity) [2]: 150 S·cm2/mol; IC50 (MDA-MB-231; 24 h exposure, MTT, read-out: IC50 (µM) (average ± standard deviation) 24 h MDA-MB-231): 5 ± 0.1 µM; IC50 (MDA-MB-231; 72 h exposure, MTT, read-out: IC50 (μM) (average ± standard deviation) 72 h MDA-MB-231): 0.16 ± 0.01 µM; Solubility (μM) [3]: 0.6 ± 0.2 µM; Solubility (μg/mL) [3]: 0.6 ± 0.2 µg/mL
F[B-](F)(F)F.[Na+] [NaBF4, reference compound]	> 2000	343 ± 39	923 ± 77	386 ± 49	> 2000	347 ± 19	
c1ccc([B-](c2ccccc2)(c2ccccc2)c2ccccc2)cc1 [NaBPh4, reference compound]	217 ± 44	102 ± 14	186 ± 11	55 ± 4	441 ± 61	149 ± 13	
[Cl-].[Na+] [NaCl, reference compound]	> 2000	280 ± 33	782 ± 55	274 ± 31	> 2000	398 ± 38	
O=[N+]([O-])[O-].[Na+] [NaNO3, reference compound]	> 2000	262 ± 38	> 1000	331 ± 57	> 2000	334 ± 23	
O=S(=O)([O-])C(F)(F)F.[Na+] [NaOTf, reference compound]	> 2000	279 ± 30	> 1000	159 ± 20	> 2000	354 ± 27	
F[P-](F)(F)(F)(F)F.[Na+] [NaPF6, reference compound]	> 2000	311 ± 27	759 ± 77	297 ± 24	> 1000	329 ± 17	
[F][Sb-]([F])([F])([F])([F])[F].[Na+] [NaSbF6, reference compound]	> 1000	234 ± 24	693 ± 53	180 ± 22	689 ± 61	236 ± 13	
CC[N+](C)(CC)CCC[n+]1c(-c2ccccc2)c2cc(N)ccc2c2ccc(N)cc21.[I-].[I-] [PI, propidium iodide]							CD band 220 nm (hydrogen bonding), intensity change (ctDNA): Unchanged; CD band 220 nm (hydrogen bonding), wavelength shift (ctDNA): Blue shift; CD band 246 nm (helicity), intensity change (ctDNA): Hyperchromic; CD band 246 nm (helicity), wavelength shift (ctDNA): Unchanged; CD band 268−280 nm (base-pair stacking interactions), intensity change (ctDNA): Hyperchromic; CD band 268−280 nm (base-pair stacking interactions), wavelength shift (ctDNA): Unchanged
